Source: patent publication US8906925B2, “Pyrido[4,3-B]indoles containing rigid moieties” (Medivation Technologies, Inc., priority 2008, dated 2014)
“And” between values parts separate entries of the source, which are not always exact repeats. Identical values can stand only once. Like-named read-outs stand apart in the source and are kept apart here.

Tests used:
[1] = target: T1, human recombinant serotonin (5-Hydroxytryptamine) 5-HT6 receptor (Homo sapiens, UniProt P50406); assay: Serotonin 5-HT6 radioligand binding ([3H]LSD); conditions: for inhibition at 1 µM / inhibition at 0.1 µM: read-out: Inhibition of ligand binding, Serotonin 5-HT6 (percent inhibition of specific binding); for inhibition at 0.1 µM: compound at 0.1 μM
T1 construct: expressed in transfected cells; host or cells: human HeLa cells
T1 sequence (P50406 whole entry): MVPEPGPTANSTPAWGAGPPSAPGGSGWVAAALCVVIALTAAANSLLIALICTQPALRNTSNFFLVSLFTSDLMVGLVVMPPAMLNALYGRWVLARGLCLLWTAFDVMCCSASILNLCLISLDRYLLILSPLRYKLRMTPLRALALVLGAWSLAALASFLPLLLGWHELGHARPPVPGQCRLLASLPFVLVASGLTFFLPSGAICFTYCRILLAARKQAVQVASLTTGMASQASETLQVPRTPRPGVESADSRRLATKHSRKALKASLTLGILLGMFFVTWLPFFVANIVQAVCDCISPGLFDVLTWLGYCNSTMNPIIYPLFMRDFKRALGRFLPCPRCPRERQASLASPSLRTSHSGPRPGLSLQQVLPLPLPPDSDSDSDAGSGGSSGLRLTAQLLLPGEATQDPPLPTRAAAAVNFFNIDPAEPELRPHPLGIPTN
Protocol: Compounds of the invention were incubated with 1.5 nM [3H]Lysergic acid diethylamide (LSD) for 120 min. at 37° C. […] Receptor proteins were filtered and washed, the filters were then counted to determine [3H]LSD specifically bound. Compounds were screened at 1 μM or lower, using 1% DMSO as vehicle. Biochemical assay results are presented as the percent inhibition of specific binding in Table 10.

[2] = target: human dopamine D2L receptor (Homo sapiens, UniProt P14416); assay: Dopamine D2L radioligand binding ([3H]Spiperone); conditions: compound at 1 μM; for Inhibition of ligand binding, Dopamine D2L: 1 µM
Sequence of human dopamine D2L receptor (P14416 whole entry): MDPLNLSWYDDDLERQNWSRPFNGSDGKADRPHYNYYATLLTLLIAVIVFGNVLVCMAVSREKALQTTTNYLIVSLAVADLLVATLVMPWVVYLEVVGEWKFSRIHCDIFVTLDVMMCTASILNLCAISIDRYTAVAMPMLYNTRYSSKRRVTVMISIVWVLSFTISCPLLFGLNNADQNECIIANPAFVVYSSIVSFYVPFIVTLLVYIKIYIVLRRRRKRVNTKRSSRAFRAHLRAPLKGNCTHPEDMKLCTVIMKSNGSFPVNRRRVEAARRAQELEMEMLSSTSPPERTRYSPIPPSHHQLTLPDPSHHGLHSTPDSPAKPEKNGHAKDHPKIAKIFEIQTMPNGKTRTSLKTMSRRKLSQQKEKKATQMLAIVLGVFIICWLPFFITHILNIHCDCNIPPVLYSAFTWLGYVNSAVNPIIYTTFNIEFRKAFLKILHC
Source text: Non-specific binding was estimated in the presence of […] Haloperidol. Receptor proteins were filtered and washed, the filters were then counted to determine [^3H]Spiperone specifically bound. […] Biochemical assay results are presented as the percent inhibition of specific binding in Table 9.

[3] = target: T2, human recombinant serotonin (5-Hydroxytryptamine) 5-HT2A receptor (Homo sapiens, UniProt P28223); assay: Serotonin 5-HT2A radioligand binding ([3H]Ketanserin); conditions: for inhibition at 1 µM: read-out: Inhibition of ligand binding, Serotonin 5-HT2A (percent inhibition of specific binding), compound at 1 μM; for inhibition at 0.1 µM: read-out: Inhibition of ligand binding, Serotonin 5-HT2A (percent inhibition of specific binding), compound at 0.1 μM
T2 construct: expressed in transfected cells; host or cells: Chinese hamster ovary (CHO-K1) cells
T2 sequence (P28223 whole entry): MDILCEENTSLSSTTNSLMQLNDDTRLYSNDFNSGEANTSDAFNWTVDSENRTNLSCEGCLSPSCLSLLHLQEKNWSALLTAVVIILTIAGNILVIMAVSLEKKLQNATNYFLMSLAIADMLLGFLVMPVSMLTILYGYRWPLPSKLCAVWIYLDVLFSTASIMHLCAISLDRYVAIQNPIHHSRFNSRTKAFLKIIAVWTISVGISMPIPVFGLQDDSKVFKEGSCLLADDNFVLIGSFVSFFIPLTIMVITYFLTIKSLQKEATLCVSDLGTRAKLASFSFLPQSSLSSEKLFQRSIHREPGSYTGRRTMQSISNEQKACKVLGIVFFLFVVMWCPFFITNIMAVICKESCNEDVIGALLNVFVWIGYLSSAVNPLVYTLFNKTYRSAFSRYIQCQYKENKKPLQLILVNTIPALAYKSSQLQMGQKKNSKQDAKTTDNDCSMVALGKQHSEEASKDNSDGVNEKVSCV
Protocol: Compounds of the invention were incubated with 0.5 nM [^3H]Ketanserin for 60 min. at 25° C. Non-specific binding was estimated in the presence of 1 μM Mianserin. Receptor proteins were filtered and washed, the filters were then counted to determine [^3H]Ketanserin specifically bound.

[4] = target: T3, human recombinant adrenergic α2A receptor (Homo sapiens, UniProt P08913); assay: Adrenergic α2A radioligand binding ([3H]MK-912); conditions: compound at 1 μM
T3 construct: expressed in transfected cells; host or cells: insect Sf9 cells
T3 sequence (P08913 1-465): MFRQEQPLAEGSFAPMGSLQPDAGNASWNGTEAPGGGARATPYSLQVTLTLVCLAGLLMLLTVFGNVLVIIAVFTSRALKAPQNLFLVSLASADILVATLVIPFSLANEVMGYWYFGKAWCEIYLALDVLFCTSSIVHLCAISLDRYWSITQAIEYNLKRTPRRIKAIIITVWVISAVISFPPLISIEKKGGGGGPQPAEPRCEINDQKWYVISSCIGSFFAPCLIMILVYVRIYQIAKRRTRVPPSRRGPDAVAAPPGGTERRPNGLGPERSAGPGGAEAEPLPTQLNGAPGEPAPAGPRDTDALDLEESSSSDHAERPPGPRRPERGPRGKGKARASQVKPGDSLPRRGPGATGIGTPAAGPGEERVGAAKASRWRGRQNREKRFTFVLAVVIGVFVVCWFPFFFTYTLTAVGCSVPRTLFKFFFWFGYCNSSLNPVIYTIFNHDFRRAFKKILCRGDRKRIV
Method in brief: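 Sf9-expressed human receptor in 50 mM Tris-HCl pH 7.4, 12.5 mM MgCl2, 2 mM EDTA; compounds at 1 μM or lower (1% DMSO) incubated with 1 nM [3H]MK-912 for 60 min at 25° C. Non-specific binding defined with 10 μM WB-4101; filtered bound radioactivity counted, reported as percent inhibition of specific binding.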

[5] = target: human recombinant serotonin (5-Hydroxytryptamine) 5-HT7 receptor (Homo sapiens, UniProt P34969); assay: Serotonin 5-HT7 radioligand binding ([3H]LSD); conditions: compound at 1 μM; for inhibition at 1 µM: read-out: Inhibition of ligand binding, Serotonin 5-HT7 (percent inhibition of specific binding)
Sequence of human recombinant serotonin (5-Hydroxytryptamine) 5-HT7 receptor (P34969 whole entry): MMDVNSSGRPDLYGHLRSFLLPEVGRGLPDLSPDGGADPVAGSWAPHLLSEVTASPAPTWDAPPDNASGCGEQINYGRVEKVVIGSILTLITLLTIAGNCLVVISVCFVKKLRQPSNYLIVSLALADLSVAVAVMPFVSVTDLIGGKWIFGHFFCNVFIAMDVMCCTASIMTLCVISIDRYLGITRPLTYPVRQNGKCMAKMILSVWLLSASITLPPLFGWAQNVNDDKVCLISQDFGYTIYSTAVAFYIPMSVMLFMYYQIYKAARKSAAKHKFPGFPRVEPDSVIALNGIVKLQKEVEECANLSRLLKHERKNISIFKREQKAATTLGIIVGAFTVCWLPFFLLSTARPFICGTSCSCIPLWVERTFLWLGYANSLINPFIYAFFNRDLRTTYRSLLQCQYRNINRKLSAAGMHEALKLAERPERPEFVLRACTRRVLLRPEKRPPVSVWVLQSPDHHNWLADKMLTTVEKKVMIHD
Source text: Receptor proteins were filtered and washed, the filters were then counted to determine [^3H]LSD specifically bound.

[6] = target: T4, human recombinant adrenergic α2B receptor (Homo sapiens, UniProt P18089); assay: Adrenergic α2B radioligand binding ([3H]Rauwolscine); conditions: compound at 1 μM
T4 construct: expressed in transfected cells; host or cells: Chinese hamster ovary (CHO-K1) cells
T4 sequence (P18089 1-450): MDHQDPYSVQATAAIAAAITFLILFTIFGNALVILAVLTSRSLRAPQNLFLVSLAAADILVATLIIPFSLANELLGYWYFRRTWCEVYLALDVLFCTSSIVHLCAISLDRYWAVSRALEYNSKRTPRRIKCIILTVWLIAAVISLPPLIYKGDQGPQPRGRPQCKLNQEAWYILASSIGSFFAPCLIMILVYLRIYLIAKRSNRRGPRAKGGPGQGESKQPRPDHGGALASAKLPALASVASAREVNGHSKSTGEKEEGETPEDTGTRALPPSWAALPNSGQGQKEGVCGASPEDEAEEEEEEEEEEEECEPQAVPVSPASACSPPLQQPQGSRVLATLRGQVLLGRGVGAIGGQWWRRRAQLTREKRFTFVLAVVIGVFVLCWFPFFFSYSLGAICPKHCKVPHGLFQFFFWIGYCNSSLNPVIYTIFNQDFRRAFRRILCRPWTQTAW
Method in brief: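 Membranes from CHO-K1 cells expressing the receptor were incubated with 2.5 nM [3H]Rauwolscine for 60 min at 25 °C in Tris-HCl buffer pH 7.4 with MgCl2, EDTA and BSA. Non-specific binding was defined with 10 μM prazosin. Compounds were tested at ≤1 μM in 1% DMSO and read out as % inhibition of specific binding after filtration.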

[7] = […] [3H]Spiperone, read-out: Inhibition of ligand binding, Dopamine D2L (percent inhibition of specific binding)
[8] = read-out: Inhibition of ligand binding, Adrenergic α2A (percent inhibition of specific binding)
[9] = […] [3H]Rauwolscine, read-out: Inhibition of ligand binding, Adrenergic α2B (percent inhibition of specific binding)
[10] = percent inhibition of specific binding
[11] = percent inhibition of specific binding, read-out: Inhibition of ligand binding, Dopamine D2L
[12] = percent inhibition of specific binding, read-out: Inhibition of ligand binding, Adrenergic α2A
[13] = percent inhibition of specific binding, read-out: Inhibition of ligand binding, Adrenergic α2B

Compound	inhibition at 1 µM ([1]; compound at 1 μM) [%]	Inhibition of ligand binding, Dopamine D2L (percent inhibition of specific binding) ([2]; […] [3H]Spiperone) [%]	inhibition at 1 µM [2, 7] [%]	inhibition at 1 µM [3] [%]	inhibition at 1 µM [4, 8] [%]	inhibition at 1 µM [5] [%]	inhibition at 1 µM [6, 9] [%]	inhibition at 0.1 µM [1] [%]	Inhibition of ligand binding, Dopamine D2L [2, 10] [%]	inhibition at 1 µM [2, 11] [%]	inhibition at 0.1 µM [3] [%]	inhibition at 1 µM [4, 12] [%]	inhibition at 1 µM [6, 13] [%]	Inhibition of ligand binding, Serotonin 5-HT6 (percent inhibition of specific binding) ([1]; compound at 1 μM, 1 µM)	Inhibition of ligand binding, Serotonin 5-HT7 (percent inhibition of specific binding) ([5]; 1 µM) [%]
CCOC(=O)/C=C(/Cn1c2c(c3cc(C)ccc31)CN(C)CC2)c1ccc(F)cc1 [Compound No. 350, (E)-ethyl 4-(2,8-dimethyl-3,4-dihydro-1H-pyrido[4,3-b]indol-5(2H)-yl)-3-(4-fluorophenyl)but-2-enoate]	103	21	12	100	95	71	107	–	–	–	–	–	–	–	–
C/C(=C\n1c2c(c3cc(Cl)ccc31)CN(C)CC2)c1ccc(Cl)cc1 [Compound 100, (E)-8-chloro-5-(2-(4-chlorophenyl)prop-1-enyl)-2,3,4,5-tetrahydro-2-methyl-1H-pyrido[4,3-b]indole]	95	–	–	101	–	99	–	62	68	67	97	101	97	–	–
C/C(=C\n1c2c(c3cc(Cl)ccc31)CN(C)CC2)c1ccccc1F [Compound 213, (E)-8-chloro-5-(2-(2-fluorophenyl)prop-1-enyl)-2-methyl-2,3,4,5-tetrahydro-1H-pyrido[4,3-b]indole]	100	–	–	98	–	100	–	–	–	76	–	88	103	–	–
Cc1ccc2c(c1)c1c(n2C#Cc2ccc(C)nc2)CCN(C)C1 [Compound No. 476, 2,8-dimethyl-5-((6-methylpyridin-3-yl)ethynyl)-2,3,4,5-tetrahydro-1H-pyrido[4,3-b]indole]	–	–	19	100	96	90	87	–	–	–	–	–	–	64% and 86%	92
CCC/C=C(/Cn1c2c(c3cc(Cl)ccc31)CN(C)CC2)c1ccc(F)cc1 [Compound No. 351, (E)-8-chloro-5-(2-(4-fluorophenyl)hex-2-enyl)-2-methyl-2,3,4,5-tetrahydro-1H-pyrido[4,3-b]indole]	103	80	70	100	84	90	99	–	–	–	–	–	–	–	–
CN1CCc2c(c3cc(C(=O)O)ccc3n2C#Cc2ccc(F)cc2)C1 [Compound No. 482, 5-((4-fluorophenyl)ethynyl)-2-methyl-2,3,4,5-tetrahydro-1H-pyrido[4,3-b]indole-8-carboxylic acid]	4	–	-2	-8	8	22	6	–	–	–	–	–	–	–	–
Cc1ccc2c(c1)c1c(n2C#Cc2ccc(Cl)cc2)CCN(C)C1 [Compound No. 481, 5-((4-chlorophenyl)ethynyl)-2,8-dimethyl-2,3,4,5-tetrahydro-1H-pyrido[4,3-b]indole]	87	–	24	101	99	84	98	–	–	–	–	–	–	–	–
CCOC(=O)/C=C(/Cn1c2c(c3cc(C)ccc31)CN(C)CC2)c1ccccc1 [Compound No. 347, (E)-ethyl 4-(2,8-dimethyl-3,4-dihydro-1H-pyrido[4,3-b]indol-5(2H)-yl)-3-phenylbut-2-enoate]	101	–	–	100	–	101	–	–	30	27	–	96	111	–	–
Cc1ccc2c(c1)c1c(n2CC(O)(c2ccccc2)c2ccc(F)cc2)CCN(C)C1 (stereo not drawn) [Compound No. 176, 2-(2,8-dimethyl-3,4-dihydro-1H-pyrido[4,3-b]indol-5(2H)-yl)-1-(4-fluorophenyl)-1-phenylethanol]	82	–	–	97	–	65	–	–	–	6	–	94	95	–	–
CNC(=O)c1ccc2c(c1)c1c(n2C#Cc2ccc(F)cc2)CCN(C)C1 [Compound No. 483, 5-((4-fluorophenyl)ethynyl)-N,2-dimethyl-2,3,4,5-tetrahydro-1H-pyrido[4,3-b]indole-8-carboxamide]	53	–	37	34	77	16	14	–	–	–	–	–	–	–	–
C/C(=C\n1c2c(c3ccccc31)CN(C)CC2)c1ccc(F)cc1 [Compound 205, (E)-5-(2-(4-fluorophenyl)prop-1-enyl)-2-methyl-2,3,4,5-tetrahydro-1H-pyrido[4,3-b]indole]	103	–	–	97	–	102	–	99	99	98	104	99	101	–	–
Cc1ccc2c(c1)c1c(n2CC(O)(c2ccc(F)cc2)C2CCCCC2)CCN(C)C1 (stereo not drawn) [Compound 171, 1-cyclohexyl-2-(2,8-dimethyl-3,4-dihydro-1H-pyrido[4,3-b]indol-5(2H)-yl)-1-(4-fluorophenyl)ethanol]	93	–	–	97	–	42	–	35	–	12	60	83	86	–	–
CN1CCc2c(c3cc(Cl)ccc3n2C#Cc2ccc(Cl)cc2)C1 [Compound No. 480, 8-chloro-5-((4-chlorophenyl)ethynyl)-2-methyl-2,3,4,5-tetrahydro-1H-pyrido[4,3-b]indole]	67	–	18	98	94	84	100	–	–	–	–	–	–	–	–
